In patent US8802865B2 (Janssen Pharmaceutica, NV, priority 2006, dated 2014) one finds Prostate antagonist and L.A. agonist data, which are given here for 20 compounds.

One assay deals with ventral prostate. The assay is described as follows: Ventral Prostate Weight in vivo Assay (inhibition of testosterone-enhanced tissue weight). Set-up: key: “active” in the Table below if the non weight adjusted prostate weight was ≦40 mg or the % Inhibition prostate weight, body weight adjusted was ≧40% @ 2 mg/day dosage; listed herein as “inactive” as they did not meet the specified criteria defined above. Particulars: castrated male Sprague Dawley rats, test compound usually orally once daily with testosterone propionate s.c.; ventral prostate wet weight; criteria at 2 mg/day dosage. The procedure: (§1) Ventral Prostate and Levator Ani Weight in vivo Assay
(§2) Immature (approximately 50 g) castrated male Sprague Dawley rats (Charles River) were treated once daily for five days with test compound (usually given orally at 40 mg/kg in a volume of 0.3 mL, in 30% cyclodextrin or 0.5% methylcellulose vehicle) and with testosterone propionate (given subcutaneously by injection at the nape of the neck at 2 mg/kg, in a volume of 0.1 mL in sesame oil). On the sixth day, the rats were euthanized by asphyxiation in carbon dioxide. Ventral prostates and levator ani were removed and their wet weights determined. Test compound activity was determined as the percent inhibition of testosterone-enhanced tissue weights, with a vehicle-treated control group set to zero percent and a testosterone alone-treated control group set to 100%.
(§3) Mature (150- to 200-g) castrated male Sprague Dawley rats (Charles River) are similarly tested according to the procedure described above. The rats were dosed for two weeks, with 0.4 mg/kg testosterone propionate used as the positive control.
(§4) Representative compounds of the present invention were tested according to the procedure described above, with results as listed in Table 3 below. For effect on prostate—i.e. an antagonist—a test compound is listed as “active” in the Table below if the non weight adjusted prostate weight was ≦40 mg or the % Inhibition prostate weight, body weight adjusted was ≧40% @ 2 mg/day dosage. For effect on levator ani—i.e. an agonist—a test compound is listed as “active” in the Table below if the non weight adjusted levator ani weight was ≧40 mg or the % Stimulation levator ani weight, body weight adjusted was ≧40% at 2 mg/day dosage.

In assay [1] the test system is levator ani. The assay is described as follows: Levator Ani Weight in vivo Assay (stimulation of levator ani weight). Details: key: “active” in the Table below if the non weight adjusted levator ani weight was ≧40 mg or the % Stimulation levator ani weight, body weight adjusted was ≧40% at 2 mg/day dosage; listed herein as “inactive” as they did not meet the specified criteria defined above. Particulars: castrated male Sprague Dawley rats, test compound usually orally once daily with testosterone propionate s.c.; levator ani wet weight; criteria at 2 mg/day dosage. The procedure:
as §1, §2, §3, §4

Assay [2] has as its system levator ani. Described as above. Details: key: “active” in the Table below if the non weight adjusted prostate weight was ≦40 mg or the % Inhibition prostate weight, body weight adjusted was ≧40% @ 2 mg/day dosage; listed herein as “inactive” as they did not meet the specified criteria defined above. The settings on record: castrated male Sprague Dawley rats, test compound usually orally once daily with testosterone propionate s.c.; levator ani wet weight; criteria at 2 mg/day dosage. The procedure:
as §1, §2, §3, §4

Turning to `C=CCC(O)(c1nc2cc(C#N)c(C(F)(F)F)cc2[nH]1)C(F)(F)F` (stereo not shown) [Compound 38, 2-(1-Hydroxy-1-trifluoromethyl-but-3-enyl)-6-trifluoromethyl-1H-benzoimidazole-5-carbonitrile], the Prostate antagonist result with ventral prostate is given as “active”. For the same compound, the L.A. agonist entry in the assay on levator ani [1] is “active”.
Turning to `C=C=CC(O)(c1nc2cc(Cl)c(Cl)cc2[nH]1)C(F)(F)F` (single isomer, unassigned; (+)) [Compound 31, (+)-Enantiomer of 2-(5,6-Dichloro-1H-benzoimidazol-2-yl)-1,1,1-trifluoro-penta-3,4-dien-2-ol], the Prostate antagonist entry in the assay with ventral prostate is reported as “active”. The L.A. agonist result in the assay on levator ani [1] was “active”.
On to `C=C=CC(O)(c1nc2cc(Cl)c(Cl)cc2[nH]1)C(F)(F)F` (stereo not shown) [Compound 3, 2-(5,6-Dichloro-1H-benzoimidazol-2-yl)-1,1,1-trifluoro-penta-3,4-dien-2-ol], for which the Prostate antagonist entry in the assay with ventral prostate is on record as “active”. Besides, in the assay on levator ani [1], the L.A. agonist entry is “active”.
As to `FC(F)(F)C1(c2nc3cc(Cl)c(Cl)cc3[nH]2)C=CCO1` (stereo not shown) [Compound 45, 5,6-Dichloro-2-(2-trifluoromethyl-2,5-dihydro-furan-2-yl)-1H-benzoimidazole], the Prostate antagonist entry with ventral prostate was “inactive”. In addition, the L.A. agonist result in the assay on levator ani [1] was “active”.
With `FC(F)(F)C1(c2nc3cc(Cl)c(Cl)cc3[nH]2)CCCO1` (stereo not shown) [Compound 46, 5,6-Dichloro-2-(2-trifluoromethyl-tetrahydro-furan-2-yl)-1H-benzoimidazole], the Prostate antagonist entry in the assay with ventral prostate is listed as “active”. Besides, the L.A. agonist entry with levator ani [1] is reported as “active”.
As for `N#CCC(O)(c1nc2cc(Cl)c(Cl)cc2[nH]1)C(F)(F)F` (stereo not shown) [Compound 7, 3-(5,6-Dichloro-1H-benzoimidazol-2-yl)-4,4,4-trifluoro-3-hydroxy-butyronitrile], in the assay with ventral prostate, the Prostate antagonist result is “inactive”. In addition, in the assay with levator ani [1], the L.A. agonist result is given as “active”.
For the compound `CC(C)=CC(O)(c1nc2cc(Cl)c(Cl)cc2[nH]1)C(F)(F)F` (stereo not shown) [Compound 14, 2-(5,6-Dichloro-1H-benzoimidazol-2-yl)-1,1,1-trifluoro-4-methyl-pent-3-en-2-ol], the Prostate antagonist result with ventral prostate is “active”. Besides, the L.A. agonist result in the assay with levator ani [2] is “inactive”.
Consider `C#CCC(O)(c1nc2cc(C#N)c(C(F)(F)F)cc2[nH]1)C(F)(F)F` (stereo not shown) [Compound 39, 2-(1-Hydroxy-1-trifluoromethyl-but-3-ynyl)-6-trifluoromethyl-1H-benzoimidazole-5-carbonitrile], for which, in the assay with ventral prostate, the Prostate antagonist result is reported as “active”. The L.A. agonist result in the assay on levator ani [2] is “inactive”.
On to `C=CC(O)(c1nc2cc(Cl)c(Cl)cc2[nH]1)C(F)(F)F` (single isomer, unassigned; (+)) [Compound 43, (+)-2-(5,6-dichloro-1H-benzoimidazol-2-yl)-1,1,1-trifluoro-but-3-en-2-ol], for which the Prostate antagonist result in the assay with ventral prostate is “inactive”. The L.A. agonist entry in the assay with levator ani [1] is “active”.
Consider `C=C=C(C)C(O)(c1nc2cc(Cl)c(Cl)cc2[nH]1)C(F)(F)F` (stereo not shown) [Compound 6, 2-(5,6-Dichloro-1H-benzoimidazol-2-yl)-1,1,1-trifluoro-3-methyl-pent-3,4-dien-2-ol], for which the Prostate antagonist result in the assay on ventral prostate is recorded as “active”. In the assay with levator ani [2], the L.A. agonist result was “inactive”.
Regarding `C=C(C)CC(O)(c1nc2cc(Cl)c(Cl)cc2[nH]1)C(F)(F)F` (stereo not shown) [Compound 13, 2-(5,6-Dichloro-1H-benzoimidazol-2-yl)-1,1,1-trifluoro-4-methyl-pent-4-en-2-ol], the Prostate antagonist result in the assay on ventral prostate was “active”. The L.A. agonist result in the assay with levator ani [2] was “inactive”.
The like results for `C/C=C/C(O)(c1nc2cc(Cl)c(Cl)cc2[nH]1)C(F)(F)F` (stereo not drawn) [Compound 16, 2-(5,6-Dichloro-1H-benzoimidazol-2-yl)-1,1,1-trifluoro-trans-pent-3-en-2-ol] were, in that order, “active” and “inactive”.
Turning to `FC(F)(F)C1(c2nc3cc(Cl)c(Cl)cc3[nH]2)OCCCO1` [Compound 51, 5,6-Dichloro-2-(2-trifluoromethyl-[1,3]dioxan-2-yl)-1H-benzimidazole], the Prostate antagonist entry in the assay on ventral prostate is listed as “active”. Also, the L.A. agonist entry with levator ani [2] is “inactive”.
For `C#CCC(O)(c1nc2cc(Cl)c(Cl)cc2[nH]1)C(F)(F)F` (stereo not shown) [Compound 2, 2-(5,6-Dichloro-1H-benzoimidazol-2-yl)-1,1,1-trifluoro-pent-4-yn-2-ol], in the assay with ventral prostate, the Prostate antagonist entry is “active”. The L.A. agonist entry with levator ani [1] was “active”.
As to `C=CC(c1ccccc1)C(O)(c1nc2cc(Cl)c(Cl)cc2[nH]1)C(F)(F)F` (stereo not shown) [Compound 28, 2-(5,6-Dichloro-1H-benzoimidazol-2-yl)-1,1,1-trifluoro-3-phenyl-pent-4-en-2-ol], in the assay on ventral prostate, the Prostate antagonist result is reported as “active”. In the assay with levator ani [2], the L.A. agonist entry was “inactive”.
As for `C#CCC(O)(c1nc2cc(Cl)c(Cl)cc2n1C)C(F)(F)F` (single isomer, unassigned; (-)) [Compound 37, (−)-Enantiomer of 2-(5,6-Dichloro-1-methyl-1H-benzoimidazol-2-yl)-1,1,1-trifluoro-pent-4-yn-2-ol], the Prostate antagonist result in the assay with ventral prostate is “inactive”. Further, the L.A. agonist entry in the assay with levator ani [1] is “active”.
The corresponding values for `C=CC(O)(c1nc2cc(Cl)c(Cl)cc2[nH]1)C(F)(F)F` (stereo not shown) [Compound 4, 2-(5,6-Dichloro-1H-benzoimidazol-2-yl)-1,1,1-trifluoro-but-3-en-2-ol] are “active” and “active”.
Take `C=CCC(O)(c1nc2cc(Cl)c(Cl)cc2[nH]1)C(F)(F)F` (single isomer, unassigned; (+)) [Compound 23, (+)-Enantiomer of 2-(5,6-Dichloro-1H-benzoimidazol-2-yl)-1,1,1-trifluoro-pent-4-en-2-ol]: the Prostate antagonist entry in the assay with ventral prostate is “active”. Moreover, the L.A. agonist entry in the assay on levator ani [2] is “inactive”.
As for `C/C=C\C(O)(c1nc2cc(Cl)c(Cl)cc2[nH]1)C(F)(F)F` (stereo not drawn) [Compound 15, 2-(5,6-Dichloro-1H-benzoimidazol-2-yl)-1,1,1-trifluoro-cis-pent-3-en-2-ol], the Prostate antagonist result in the assay on ventral prostate was “active”. In addition, the L.A. agonist result with levator ani [1] is recorded as “active”.
Take `OC(c1ccccc1)(c1nc2cc(Cl)c(Cl)cc2[nH]1)C(F)(F)F` (stereo not shown) [Compound 10, 1-(5,6-Dichloro-1H-benzoimidazol-2-yl)-2,2,2-trifluoro-1-phenyl-ethanol]: in the assay on ventral prostate, the Prostate antagonist result is reported as “active”. In addition, in the assay with levator ani [2], the L.A. agonist result is “inactive”.
